Assay in all cases: relative viability (nuclei count vs DMSO), 5 days (fraction); higher = more cells survive
Compound in the test “Pemetrexed + Bortezomib”: Nc1nc2[nH]cc(CCc3ccc(C(=O)N[C@@H](CCC(=O)O)C(=O)O)cc3)c2c(=O)[nH]1 [Pemetrexed] + CC(C)C[C@H](NC(=O)[C@H](Cc1ccccc1)NC(=O)c1cnccn1)B(O)O [Bortezomib] (partner 0.002 µM)
A digest of the protocol: (§1)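 Lung cancer cell lines were seeded in 1536-well plates and dosed by pin tool the next day, with either a single drug or a fixed anchor-drug dose combined with five library-drug doses (not always all listed) spaced in √10 steps. Five days later, one step fixed the cells and stained their nuclei (final 0.05% Triton X-100, 1% formaldehyde, 1 ug/ml Hoechst), and nuclei were counted on 4× images. Relative viability is the nuclei count in treated wells divided by the count in vehicle wells, and each value is the median of duplicate plates.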

Compound in the test “Idelalisib + Navitoclax”: CC[C@H](Nc1ncnc2[nH]cnc12)c1nc2cccc(F)c2c(=O)n1-c1ccccc1 [Idelalisib] + CC1(C)CCC(c2ccc(Cl)cc2)=C(CN2CCN(c3ccc(C(=O)NS(=O)(=O)c4ccc(N[C@H](CCN5CCOCC5)CSc5ccccc5)c(S(=O)(=O)C(F)(F)F)c4)cc3)CC2)C1 [Navitoclax] (partner 0.5 µM)
A digest of the protocol:
as §1

Compound in the test “Pemetrexed + Foretinib”: Nc1nc2[nH]cc(CCc3ccc(C(=O)N[C@@H](CCC(=O)O)C(=O)O)cc3)c2c(=O)[nH]1 [Pemetrexed] + COc1cc2c(Oc3ccc(NC(=O)C4(C(=O)Nc5ccc(F)cc5)CC4)cc3F)ccnc2cc1OCCCN1CCOCC1 [Foretinib] (partner 0.25 µM)
A digest of the protocol: as §1

Compound in the test “Pemetrexed + Pictilisib”: Nc1nc2[nH]cc(CCc3ccc(C(=O)N[C@@H](CCC(=O)O)C(=O)O)cc3)c2c(=O)[nH]1 [Pemetrexed] + CS(=O)(=O)N1CCN(Cc2cc3nc(-c4cccc5[nH]ncc45)nc(N4CCOCC4)c3s2)CC1 [Pictilisib] (partner 1 µM)
A digest of the protocol:
as §1

As for UMC-11, the relative viability was determined as 0.573 in the test with Pemetrexed + Bortezomib (first compound 0.002 µM); 0.639 with Pemetrexed + Bortezomib (first compound 0.006325 µM); 0.682 with Pemetrexed + Bortezomib (first compound 0.02 µM); 0.991 in the test with Pemetrexed + Bortezomib (first compound 0.06325 µM); 0.698 with Pemetrexed + Bortezomib (first compound 0.2 µM); 0.366 with Idelalisib + Navitoclax (first compound 0.04 µM). The relative viability with Idelalisib + Navitoclax (first compound 0.1265 µM) came out at 0.326; in the test with Idelalisib + Navitoclax (first compound 0.4 µM), 0.274; with Idelalisib + Navitoclax (first compound 1.265 µM) it was 0.291; with Idelalisib + Navitoclax (first compound 4 µM), 0.336; in the test with Pemetrexed + Foretinib (first compound 0.002 µM) it was 1.02; with Pemetrexed + Foretinib (first compound 0.006325 µM) it was 0.943. Besides, the relative viability amounted to 1.14 with Pemetrexed + Foretinib (first compound 0.02 µM); 1.02 in the test with Pemetrexed + Foretinib (first compound 0.06325 µM); 0.847 with Pemetrexed + Foretinib (first compound 0.2 µM); 0.809 with Pemetrexed + Pictilisib (first compound 0.002 µM); 0.807 with Pemetrexed + Pictilisib (first compound 0.006325 µM); 0.837 with Pemetrexed + Pictilisib (first compound 0.02 µM). Moreover, the relative viability came out at 0.781 in the test with Pemetrexed + Pictilisib (first compound 0.06325 µM) and 0.556 in the test with Pemetrexed + Pictilisib (first compound 0.2 µM).

The values above are taken from the supplement of paper PMC10307832.
